Reference: patent publication US4916149A, “Diuretic and saluretic 4-chloro-3-sulfamoylbenzoic acid hydrazides” (Chinoin Gyogyszer es Vegyeszeti Termekek Gyara Rt., priority 1987, dated 1990)
Several values for one entry are separate records, joined by “and”; a condition that tells them apart may be missing. Equal values may be shown once. Read-outs that look alike come from different tables or passages of the source.

What was measured:
[1] = Saluretic/diuretic screening in rats (method of Lipschitz as modified by Kagawa and Kahn); type: in vivo, male LATI CFY rats; details: for response vs control in vivo at 5 mg/kg: Rattus norvegicus; for response vs control in vivo at 5 mg/kg / Na/K ratio of the urine discharged: single oral dose (5 mg/kg oral screen dose), 24 hours; for Na/K ratio of the urine discharged: control 3.0
Procedure: The compounds of the present invention were compared with Dihydrochlorothiazide and Furosemide in rats by administration of a 5 mg/kg oral screen dose.
The screening tests were carried out on male LATI CFY rats having an average body-weight of 240 g. The animals were kept on standard rat food and starved for 16 hours before the experiment but they received water ad libitum. For evaluation of the diuretic effect, the method of Lipschitz as modified by Kagawa and Kahn [Arch. Int. Pharmacodyn. 137, 241 (1962)] was used.
Effect of a single oral dose of the compounds according to the invention on water, sodium and potassium diuresis during 24 hours as percentage of the simultaneously measured control values as well as their effect on the Na/K ratio of the urine discharged

[2] = Glucose tolerance, serum uric acid and cholesterol; type: in vivo
[3] = Antihypertensive activity in spontaneously hypertensive (SH) rats, systolic blood pressure; type: in vivo, spontaneously hypertensive (SH) male Okamoto rats
Procedure: […] A hypotension of 21.1% was induced by the compound of Example 1 by 12 hours after administration.
These investigations were carried but in spontaneously hypertensive (SH) male Okamoto rats. At least one week before starting the experiment, the animals had individually been maintained in cages and received water and semisynthetic rat food ad libitum. In the same time of each day, the blood pressure of each animal was measured and gastric tubing was carried out while immobilizing the animals. Animals with a blood pressure below 170 Hgmm were excluded from the experiment. Based on the daily determined blood pressure values, the animals were divided to experimental groups having a nearly equal average blood pressure and deviation.
At the beginning of the experiment, the animals were given 0.2 ml/100 g of a solution containing the test compound, and 1 ml/100 g of Furosemide solution, respectively. Animal groups treated with physiological saline solution and solvent, respectively were also investigated in each experiment.
Before measuring the blood pressure, the animals were put into a light-insulated sound-proof chamber then immobilized. An inflatable rubber cuff was placed on their tail root (onto the same site in each case) which was connected with a manometer.
The material and diameter of the tail cuff was standardized. The measurement was carried out according to the Riva-Rocci principle. For determining the systolic blood pressure, the palpitation method was used. The heart rate was evaluated by a piezoelektric crystal put onto the rubber ring. The blood pressure measurement of each animal was started by 2 minutes following the immobilization, repeated in every 30 seconds and usually, the values several times repeatedly observed were accepted.
Effect of a single oral dose of the compound of Example 1 or Furosemide, respectively on the systolic blood pressure of SH rats

[4] = Saluretic effect in dogs (urine volume, Na and K, 0-7 and 7-24 hours); type: in vivo, perineotomized female dogs
Procedure: The compound described in Example 1 was studied also on perineotomized female dogs. […] For adaptation, starting from the 4th week following the operation, the urinary bladder of the animals was evacuated by a catheter or treated with saline via a gastric tube. During the experiment, the dogs were kept on a standard food and they received water ad libitum. On the days of the experiements, the dogs were fasted and received only 20 ml/kg of water. Sodium in an 7.7 mmol/kg and potassium in an amount of 6.02 mmol/kg were introduced with the food.
On the day of the experiment, the bladder of the animals was evacuated and a blood sample was taken from the leg vein, then a solution of the diuretic and solvent to the controls, respectively were administered in a dose of 10 ml/kg via a gastric tube. The animals were placed separately in metabolic cages. After 7 and 24 hours, respectively the bladder of the animals was catheterized and the urine was collected by washing the metabolic cage. After 24 hours following the catheterization, a blood sample was taken again.
In addition to the discharged volume, the Na^+ and K^+ content of the urine as well as the glucose and cholesterol level of the serum were determined.

[5] = read-out: K (potassium) diuresis, percentage of the simultaneously measured control values
[6] = read-out: Na (sodium) diuresis, percentage of the simultaneously measured control values
[7] = read-out: Water diuresis, percentage of the simultaneously measured control values
[8] = single oral dose 5 mg/kg, before treatment 216 mmHg
[9] = single oral dose 100 mg/kg, before treatment 201 mmHg

Row | Compound | response vs control in vivo at 5 mg/kg [1, 5] [%] | response vs control in vivo at 5 mg/kg [1, 6] [%] | response vs control in vivo at 5 mg/kg [1, 7] [%] | Na/K ratio of the urine discharged [1] | further results
1 | NS(=O)(=O)c1cc(C(=O)Nn2c(=S)[nH]c3cc(C(=O)O)ccc32)ccc1Cl.O [Example 1, 1-(4'-chloro-3'-sulfamoylbenzoyl)amino-5-carboxybenzimidazole-2-thione monohydrate] | 122 | 152 | 148 | 4.6 | discharged urine volume as well as ion diuresis ([1]; 5 mg/kg oral, compared with Dihydrochlorothiazide and Furosemide): particularly advantageous; Na/K index ([1]; 5 mg/kg oral, result in words): highly preferable; deterioration of the glucose tolerance ([2]; even in a high dose (30 mg/kg)): does not induce any deterioration; effect on the cholesterol level of the serum ([2]; in vivo): no significant effect; effect on the uric acid concentration of the serum ([2]; in vivo): no significant effect; Hypotension 6 hours following treatment, % ([3]; single oral dose 5 mg/kg): 14.3%; Hypotension 6 hours following treatment [3, 8]: 31 mmHg; Hypotension 12 hours following treatment [3, 8]: 45 mmHg; Hypotension 12 hours following treatment, % ([3]; single oral dose 5 mg/kg, monohydrate, 5 mg/kg): 21.1% and 20.1%; Hypotension 24 hours following treatment, % ([3]; single oral dose 5 mg/kg): 13.8%; Hypotension 24 hours following treatment [3, 8]: 30 mmHg
2 | NS(=O)(=O)c1cc(C(=O)Nn2c(=O)[nH]c3cc(C(=O)O)ccc32)ccc1Cl [Example 7, 1-(4'-chloro-3'-sulfamoylbenzoyl)-amino-5-carboxybenzimidazolone] | 110 | 133 | 129 | 3.7 | –
3 | CSc1nc2cc(C(=O)O)ccc2n1NC(=O)c1ccc(Cl)c(S(N)(=O)=O)c1 [Example 9, 1-(4'-chloro-3'-sulfamoylbenzoyl)-amino-5-carboxy-2-methylthiobenzimidazole] | 95 | 105 | 99 | 3.4 | –
4 | Cc1nc2cc(C(=O)O)ccc2n1NC(=O)c1ccc(Cl)c(S(N)(=O)=O)c1 [Example 16, 1-(4'-chloro-3'-sulfamoylbenzoyl)amino-5-carboxy-2-methylbenzimidazole] | 109 | 117 | 111 | 3.3 | –
5 | NS(=O)(=O)c1cc(C(=O)Nn2cnc3cc(C(=O)O)ccc32)ccc1Cl [Example 19, 1-(4'-chloro-3'-sulfamoylbenzoyl)amino-5-carboxybenzimidazole] | 120 | 121 | 117 | 3.1 | –
6 | NS(=O)(=O)c1cc(C(=O)Nn2cnc3ccccc32)ccc1Cl [Example 22, 1-(4'-chloro-3'-sulfamoylbenzoyl)-aminobenzimidazole] | 103 | 99 | 107 | 3.7 | –
7 | Cc1nc2ccccc2n1NC(=O)c1ccc(Cl)c(S(N)(=O)=O)c1 [Example 23, 1-(4'-chloro-3'-sulfamoylbenzoyl)amino-2-methylbenzimidazole] | 102 | 105 | 98 | 4.0 | –
8 | NS(=O)(=O)c1ccc2c(c1)[nH]c(=S)n2NC(=O)c1ccc(Cl)c(S(N)(=O)=O)c1 [Example 24, 1-(4'-chloro-3'-sulfamoylbenzoyl)amino-5-sulfamoylbenzimidazole-2-thione] | 104 | 104 | 108 | 3.9 | –
9 | NS(=O)(=O)c1cc(C(=O)Nn2cnc3cc(C(F)(F)F)ccc32)ccc1Cl [Example 26, 1-(4'-chloro-3'-sulfamoylbenzoyl)amino-5-trifluoromethylbenzimidazole] | 106 | 108 | 107 | 4.0 | –
10 | Cc1nc2cc(C(F)(F)F)ccc2n1NC(=O)c1ccc(Cl)c(S(N)(=O)=O)c1 [Example 27, 1-(4'-chloro-3'-sulfamoylbenzoyl)amino-2-methyl-5-trifluoromethylbenzimidazole] | 85 | 94 | 95 | 4.3 | –
11 | NS(=O)(=O)c1cc(C(=O)Nn2c(-c3ccccc3)nc3cc(C(F)(F)F)ccc32)ccc1Cl [Example 29, 1-(4'-chloro-3'-sulfamoylbenzoyl)amino-2-phenyl-5-trifluoromethylbenzimidazole] | 105 | 101 | 97 | 2.9 | –
12 | CSc1nc2cc(C(F)(F)F)ccc2n1NC(=O)c1ccc(Cl)c(S(N)(=O)=O)c1 [Example 30, 1-(4'-chloro-3'-sulfamoylbenzoyl)-amino-2-methylthio-5-trifluoromethylbenzimidazole] | 108 | 106 | 114 | 3.0 | –
13 | COC(=O)c1ccc2c(c1)nc(C)n2NC(=O)c1ccc(Cl)c(S(N)(=O)=O)c1 [Example 32, 1-(4'-chloro-3'-sulfamoylbenzoyl)amino-5-methoxycarbonyl-2-methylbenzimidazole] | 115 | 121 | 117 | 3.2 | –
14 | NS(=O)(=O)c1cc(C(=O)O)c(NCc2ccco2)cc1Cl [Furosemide, reference compound] | 105 | 106 | 107 | 2.7 | Hypotension 6 hours following treatment, % ([3]; single oral dose 100 mg/kg): 25.3%; Hypotension 6 hours following treatment [3, 9]: 51 mmHg; Hypotension 12 hours following treatment, % ([3]; single oral dose 100 mg/kg): 19.4%; Hypotension 12 hours following treatment [3, 9]: 39 mmHg; Hypotension 24 hours following treatment, % ([3]; single oral dose 100 mg/kg): 1.5%; Hypotension 24 hours following treatment [3, 9]: 3 mmHg; diuretic effect in the 7 to 24 hours' period ([4]; 7 to 24 hours' period): low
15 | NS(=O)(=O)c1cc2c(cc1Cl)NCNS2(=O)=O [Hypothiazide, reference compound] | 114 | 129 | 124 | 3.5 | diuretic effect in 7 hours' period ([4]; 7 hours' period after administration): low
